Measured values published in patent US20240238299A1, “USE OF PYRROLOPYRIMIDINE COMPOUND” (GUANGZHOU JOYO PHARMATECH CO., LTD, priority 2021, published 2024).

What was measured:
[1] = tested on: IL-6-induced pSTAT1 in hPBMC; test: IL-6-induced pSTAT1 in hPBMC (flow cytometry, CD4 positive cells); format: cell-based; details: Homo sapiens, 10 ng/mL IL-6, CD4 positive cells
Method: (§1) • 1) Preparation of culture medium: 1640 medium+10% fetal bovine serum+1% penicillin/streptomycin+1% non-essential amino acids (all percentages were v/v) • 2) Cells were thawed in a 37° C. water bath and then centrifuged. The cell concentration was adjusted to 5×10^5 cells/mL using the prepared culture medium. • 3) Cell suspension was seeded into a 96-well round-bottom plate at 200 μL/well and incubated at 37° C. for 90 minutes. • 4) Drugs were added, followed by a 37° C. incubation for 30 minutes. • 5) Cells were then stimulated by adding 10 ng/mL of IL-6 or 4 ng/mL of IL-2, followed by a 37° C. incubation for 15 minutes.
(§2) • 1) After completing the stimulation, cells were centrifuged and washed once with staining buffer (DPBS+2% bovine serum albumin). Antibodies were then added for a 30-minute staining process at 4° C. […]
(§3) • 1) Response %=[(MFI value of drug-treated well−mean MFI value of control well)/(mean MFI value of DMSO well−mean MFI value of control well)]*100% was calculated. • 2) The calculated Response % values were input into GraphPad Prism 8 software. […]

[2] = tested on: IL-2-induced pSTAT5 in hPBMC; test: IL-2-induced pSTAT5 in hPBMC (flow cytometry, CD4 positive cells); format: cell-based; details: Homo sapiens, 4 ng/mL IL-2, CD4 positive cells
Method: as §1, §2, §3

[3] = tested on: IL-6 secretion by astrocytes; test: IL-6 release caused by NMO-IgG in astrocytes (ELISA); format: cell-based, rat; details: Rattus norvegicus, Astrocyte, 24 h, NMO-IgG 250 μg/mL, read-out: IL-6 inhibition rate, Mean
Method: The compound was dissolved in DMSO to prepare a compound stock solution. The compound stock solution was then serially diluted in a gradient using DMSO to prepare a series of 1000× test compound solutions. These 1000× test compound solutions were further diluted at a ratio of 1:100 with cell culture medium to prepare a series of 10× test compound solutions. Finally, according to the experimental well plate loading design, a corresponding volume of 10× solution was added to each well, with two duplicate wells for each drug concentration. In the experiment, the test solution (i.e., 1× solution) had varying final concentrations of compound I, specifically 20, 2.222, 0.247, and 0.027 μM; the concentration of Meprednisone compound (i.e., 1× solution) was 30 μM; the concentration of BAY 11-7082 (i.e., 1× solution) was 5 μM; the final DMSO concentration in each well was 0.1%. DMSO without compound was added to blank control wells, with a final concentration of 0.1%.
1) Extraction and separation of primary astrocytes: A mixed glial cell culture medium was prepared from the cerebral cortex of 1-day-old newborn rats. After euthanizing the newborn rats, they were immersed in alcohol. Their skin was cut, the brains were removed, and the cerebral cortex was isolated. The tissues were then ground to remove the connective tissue, and the mixed glial cells were sieved through a 70 µm cell strainer. These cells were then seeded into a cell culture plate coated with poly-L-lysine. The culture medium was DMEM, containing 10% heat-inactivated fetal bovine serum, 100 U/mL penicillin, and […]. After about 12 days of in vitro culture, the cells reached confluence. Microglia, endothelial cells, and oligodendrocytes were removed from the mixed glial cells by vibratory shaking. […] 2) Culture of astrocytes: The isolated astrocytes were cultured in a 37° C., 5% CO2 incubator. The culture medium was changed every 3 to 4 days. The astrocytes could also be digested using trypsin (0.25%) and then frozen in liquid nitrogen for future use.
Human NMO-IgG was isolated from a sterile-filtered serum pool (AQP4-IgG-positive NMOSD) using a HiTrap Protein G-HP column (GE Healthcare). The serum samples were diluted at a ratio of 1:1 with binding buffer, and after packing the purification column with binding buffer, the serum sample was added. The column was subsequently washed with binding buffer again and the antibodies were eluted according to the instructions. Finally, the antibodies were concentrated on an Amicon Ultra-4 centrifugal filter (millipore) with a 10,000 MW cutoff. The concentrated immunoglobulin was filtered through a 0.22 µm filter. The protein concentration of the concentrate was determined using the BCA method and stored at −80° C. The total IgG extracted from the serum of NMOSD patients was NMO-IgG (containing AQP4-IgG), and the cells were stimulated at a protein concentration of 250 μg/mL during the experiment.
Astrocytes were cultured or revived until day 2 and then seeded into a 24-well plate at a density of 1.5×10^5 cells per well. The test compounds, including compound I, Meprednisone, and BAY11-7082, were pre-incubated with the cells for 30 minutes at the concentrations previously described. Subsequently, in each group, the cells continued to be stimulated with NMO-IgG at a final working concentration of 250 μg/mL for 24 hours to induce astrocyte damage. Normal human Control-IgG (CON-IgG) stimulation at a final working concentration of 250 μg/mL was used as a negative control.
After 24 hours of NMO-IgG stimulation of cells, the supernatant was collected. IL-6 levels were detected using an enzyme-linked immunosorbent assay (ELISA) following the instructions of the IL-6 ELISA kit (R&D Systems, USA, #RD6000B). The absorbance (OD values) of the samples in each group was measured, and the concentration of IL-6 in each experimental group was calculated through standard curve fitting. […]

## CN(c1ncnc2[nH]ccc12)[C@@H]1CCc2cc(C#N)nn2C1 [Compound I]
[1]
  IC50: 73.1 nM
[2]
  IC50: 36.3 nM
[3]; 0.027 μM
  inhibition at 0.027 µM: 30.4%
[3]; 0.247 μM
  inhibition at 0.247 µM: 54%
[3]; 2.222 μM
  inhibition at 2.222 µM: 94.3%
[3]; 20 μM
  inhibition at 20 µM: ~98.8%
